From article PMC11539229 (Antimicrobial Agents and Chemotherapy, 2024)
In brackets after ≈: the same amount, converted by molar mass.

Legend:
[1] = physchem; type: physicochemical
Description: Solubility assays were performed using a miniaturized shake flask method. Stock solutions (10 mM) of each test compound were used to prepare calibration standards (10–220 μM) in DMSO and to spike (1:50) duplicate aqueous samples of FaSSIF (simulating fasting state biorelevant media, pH 6.5) with a final DMSO concentration of 2%. After shaking for 2 h at 25°C, the solutions were filtered and analyzed by means of high-performance liquid chromatography with diode-array detection (HPLC-DAD) (Agilent 1200 Rapid Resolution HPLC with a diode array detector). Best-fit calibration curves were constructed using the calibration standards, which were used to determine the aqueous sample solubility ([32]).

[2] = target: recombinant InhA (Mycobacterium tuberculosis, UniProt P9WGR1); test: Inhibition of recombinant InhA; type: biochemical, M. tuberculosis
Description: GSK138 inhibited recombinant InhA with an IC50 of 0.04 µM. The minimum inhibitory concentration (MIC) was 1 µM against M. tuberculosis H37Rv, and GSK138 retained its activity against intracellular bacteria growing inside THP-1-derived macrophages in vitro (MIC 0.9 µM).

[3] = system: H37Rv-Luc inside THP-1-derived macrophages; test: Intracellular MIC in THP-1-derived macrophages, luciferase read-out; type: cell-based, M. tuberculosis; conditions: Mycobacterium tuberculosis, mean ± SD, read-out: Mtb intracell MIC
[4] = target: hERG (Homo sapiens, UniProt Q12809); test: hERG Qpatch; type: biochemical
Description: hERG activity was measured as previously described ([35]).

[5] = system: drug-susceptible, MDR and XDR M.tb clinical isolates; test: microbe, parasite or virus in culture; type: cell-based, M. tuberculosis; conditions: Mycobacterium tuberculosis
[6] = system: M. tuberculosis H37Rv; type: in vivo, BALB/c mice

Sequence of recombinant InhA (P9WGR1 whole entry, looked up): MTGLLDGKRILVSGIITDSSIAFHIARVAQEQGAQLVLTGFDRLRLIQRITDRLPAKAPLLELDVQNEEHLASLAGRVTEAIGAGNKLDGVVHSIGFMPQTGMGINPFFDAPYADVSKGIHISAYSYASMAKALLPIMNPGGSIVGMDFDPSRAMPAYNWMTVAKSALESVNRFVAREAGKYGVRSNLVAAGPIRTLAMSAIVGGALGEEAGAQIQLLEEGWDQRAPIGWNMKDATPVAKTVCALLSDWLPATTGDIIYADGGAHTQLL
Sequence of hERG (Q12809 whole entry): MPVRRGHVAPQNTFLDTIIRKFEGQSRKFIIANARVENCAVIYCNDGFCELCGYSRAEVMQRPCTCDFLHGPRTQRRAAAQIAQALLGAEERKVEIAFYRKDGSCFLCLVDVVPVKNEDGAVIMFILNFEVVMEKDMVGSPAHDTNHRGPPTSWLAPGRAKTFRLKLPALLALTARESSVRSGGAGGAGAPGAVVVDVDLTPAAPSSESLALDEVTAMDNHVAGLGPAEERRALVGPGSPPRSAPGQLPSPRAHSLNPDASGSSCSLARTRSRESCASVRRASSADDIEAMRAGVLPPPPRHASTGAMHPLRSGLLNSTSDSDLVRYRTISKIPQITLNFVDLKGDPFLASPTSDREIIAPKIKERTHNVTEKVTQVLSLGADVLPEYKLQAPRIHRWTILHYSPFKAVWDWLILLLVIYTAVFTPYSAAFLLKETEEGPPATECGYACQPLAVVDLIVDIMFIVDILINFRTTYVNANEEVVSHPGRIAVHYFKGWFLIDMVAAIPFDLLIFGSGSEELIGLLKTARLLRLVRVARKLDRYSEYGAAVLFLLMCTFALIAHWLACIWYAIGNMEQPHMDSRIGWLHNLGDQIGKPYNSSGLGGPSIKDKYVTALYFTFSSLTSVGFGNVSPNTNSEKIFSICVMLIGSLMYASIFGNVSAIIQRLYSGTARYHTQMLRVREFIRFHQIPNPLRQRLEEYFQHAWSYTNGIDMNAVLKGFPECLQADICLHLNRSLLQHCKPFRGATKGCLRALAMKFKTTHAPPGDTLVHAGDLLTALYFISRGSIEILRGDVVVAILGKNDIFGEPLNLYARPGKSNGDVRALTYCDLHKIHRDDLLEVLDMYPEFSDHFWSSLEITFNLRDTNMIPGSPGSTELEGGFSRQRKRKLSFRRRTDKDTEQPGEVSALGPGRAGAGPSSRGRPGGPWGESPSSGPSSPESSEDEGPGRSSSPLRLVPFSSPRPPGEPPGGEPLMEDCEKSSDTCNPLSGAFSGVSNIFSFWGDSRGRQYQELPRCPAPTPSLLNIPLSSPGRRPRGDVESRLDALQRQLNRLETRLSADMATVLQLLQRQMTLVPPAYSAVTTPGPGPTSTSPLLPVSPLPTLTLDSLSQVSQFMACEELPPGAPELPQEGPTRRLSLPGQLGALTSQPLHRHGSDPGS

## Cc1csc([C@](C)(O)c2nnc(Nc3cc(C)n(Cc4csc(C)n4)n3)s2)n1 [GSK138]
[1]
  solubility in FaSSIF: high
[1]; pH 6.5
  solubility at 2 h: 140 to 320 µM (≈ 60.7 to 139 µg/mL)
[2]
  IC50: 0.04 µM
[3]
  MIC: 0.9 µM (≈ 0.39 µg/mL)
[4]
  IC50: > 30 µM
[5]
  MIC90: 3.75 µM (≈ 1.63 µg/mL)
[6]; experiment 3, GSK138 200 mg/kg
  effect of addition to PaL, R + GSK656, or RZ + GSK656: did not significantly increase the activity
[6]; experiment 3, GSK138 200 mg/kg, 4 weeks (P < 0.01) and 8 weeks (P < 0.0001)
  effect of addition to BPaL, BPa or BPa + GSK656: significantly increased the activity
[6]; experiment 4, 8 weeks of treatment
  effect of addition to BPa: additive effects
[6]; experiment 5, 4 weeks of treatment
  effect of addition to BPaL on bactericidal activity: significantly increased the bactericidal activity
